In brackets after ≈: the same amount, converted by molar mass. Where two headings read alike, the source gives them in different places.
Key:
Experiment in all cases: In vitro activity, dilution method in liquid medium (MIC)
Assay type in all cases: cell-based
[1] = tested on: Enterobacter cloacae 1321 E; settings: read-out: concentrations minimales inhibitrices (C. M. I.)
Experimental: (§1) Etude pharmacologiaue des produits de l'invention. Activité in vitro, méthode des dilutions en milieu liquide.
(§2) On prépare une série de tubes dans lesquels on répartit une même quantité de milieu nutritif stérile. On distribue dans chaque tube des quantités croissantes du produit à étudier, puis chaque tube est ensemencé avec une souche bactérienne. Après incubation de vingt-quatre ou quarante-huit heures à l'étuve à 37°C, l'inhibition de la croissance est appréciée par transillumination ce qui permet de déterminer les concentrations minimales inhibitrices (C. M. I.) exprimées en µg/cm3.

Escherichia Coli 078 = settings: read-out: concentrations minimales inhibitrices (C. M. I.)
Experimental: as §1, §2

Escherichia Coli 1507 E = settings: COLI1507E, read-out: concentrations minimales inhibitrices (C. M. I.)
Experimental: as §1, §2

Escherichia Coli 1894 = settings: read-out: concentrations minimales inhibitrices (C. M. I.)
Experimental: as §1, §2

Escherichia Coli DC0 = settings: read-out: concentrations minimales inhibitrices (C. M. I.)
Experimental: as §1, §2

Escherichia Coli DC2 = settings: read-out: concentrations minimales inhibitrices (C. M. I.)
Experimental: as §1, §2

Escherichia Coli TEM = settings: read-out: concentrations minimales inhibitrices (C. M. I.)
Experimental: as §1, §2

[2] = tested on: Klebsiella Aeruginosa 1522 E; settings: read-out: concentrations minimales inhibitrices (C. M. I.)
Experimental: as §1, §2

[3] = tested on: Klebsiella pneumonae 52145; settings: read-out: concentrations minimales inhibitrices (C. M. I.)
Experimental: as §1, §2

Proteus mirabilis A 235 = settings: read-out: concentrations minimales inhibitrices (C. M. I.)
Experimental: as §1, §2

Proteus vulgaris A 232 = settings: read-out: concentrations minimales inhibitrices (C. M. I.)
Experimental: as §1, §2

Providencia DU 48 = settings: read-out: concentrations minimales inhibitrices (C. M. I.)
Experimental: as §1, §2

[4] = tested on: Salmonella typhimurium MZ 11; settings: Salmonella enterica, read-out: concentrations minimales inhibitrices (C. M. I.)
Experimental: as §1, §2

Serratia marcesceus 2532 = settings: read-out: concentrations minimales inhibitrices (C. M. I.)
Experimental: as §1, §2

[5] = tested on: Pseudomonas aeruginosa 1771 m; settings: read-out: concentrations minimales inhibitrices (C. M. I.)
Experimental: as §1, §2

[6] = COLI078, 24 H incubation at 37°C
[7] = COLI078, 48 H incubation at 37°C
[8] = COLI1894, 24 H incubation at 37°C
[9] = COLI1894, 48 H incubation at 37°C
[10] = COLIDC0, 24 H incubation at 37°C
[11] = COLIDC0, 48 H incubation at 37°C
[12] = COLIDC2, 24 H incubation at 37°C
[13] = COLIDC2, 48 H incubation at 37°C

## CO/N=C(\C(=O)N[C@@H]1C(=O)N(c2nn[nH]n2)[C@@H]1CF)c1csc(N)n1 (racemic) [Prod. ex. 11, (3SR,4SR) 3-//2-(2-aminothiazol-4-yl) 2-méthoxyimino acétyl/ amino/ 4-(fluorométhyl) 1-(1-H-tétrazol-5-yl) 2-azétidinone]
[1]; 24 H incubation at 37°C
  MIC: 0.3 µg/mL (≈ 0.812 µM)
[1]; 48 H incubation at 37°C
  MIC: 0.3 µg/mL (≈ 0.812 µM)
Escherichia Coli 078; [6]
  MIC: 0.15 µg/mL (≈ 0.406 µM)
Escherichia Coli 078; [7]
  MIC: 0.15 µg/mL (≈ 0.406 µM)
Escherichia Coli 1507 E; 24 H incubation at 37°C
  MIC: 0.08 µg/mL (≈ 0.217 µM)
Escherichia Coli 1507 E; 48 H incubation at 37°C
  MIC: 0.08 µg/mL (≈ 0.217 µM)
Escherichia Coli 1894; [8]
  MIC: ≤ 0.04 µg/mL
Escherichia Coli 1894; [9]
  MIC: ≤ 0.04 µg/mL
Escherichia Coli DC0; [10]
  MIC: 0.6 µg/mL (≈ 1.62 µM)
Escherichia Coli DC0; [11]
  MIC: 0.6 µg/mL (≈ 1.62 µM)
Escherichia Coli DC2; [12]
  MIC: 0.15 µg/mL (≈ 0.406 µM)
Escherichia Coli DC2; [13]
  MIC: 0.15 µg/mL (≈ 0.406 µM)
Escherichia Coli TEM; 24 h
  MIC: 0.6 µg/mL (≈ 1.62 µM)
Escherichia Coli TEM; 48 h
  MIC: 0.6 µg/mL (≈ 1.62 µM)
[2]; 24 H incubation at 37°C
  MIC: 0.6 µg/mL (≈ 1.62 µM)
[2]; 48 H incubation at 37°C
  MIC: 0.6 µg/mL (≈ 1.62 µM)
[3]; 24 H incubation at 37°C
  MIC: 1.2 µg/mL (≈ 3.25 µM)
[3]; 48 H incubation at 37°C
  MIC: 1.2 µg/mL (≈ 3.25 µM)
Proteus mirabilis A 235; A235, 24 H incubation at 37°C
  MIC: 0.15 µg/mL (≈ 0.406 µM)
Proteus mirabilis A 235; A235, 48 H incubation at 37°C
  MIC: 0.15 µg/mL (≈ 0.406 µM)
Proteus vulgaris A 232; A232, 24 H incubation at 37°C
  MIC: 0.15 µg/mL (≈ 0.406 µM)
Proteus vulgaris A 232; A232, 48 H incubation at 37°C
  MIC: 0.15 µg/mL (≈ 0.406 µM)
Providencia DU 48; DU48, 24 H incubation at 37°C
  MIC: 1.2 µg/mL (≈ 3.25 µM)
Providencia DU 48; DU48, 48 H incubation at 37°C
  MIC: 1.2 µg/mL (≈ 3.25 µM)
[4]; 24 H incubation at 37°C
  MIC: 0.3 µg/mL (≈ 0.812 µM)
[4]; 48 H incubation at 37°C
  MIC: 0.3 µg/mL (≈ 0.812 µM)
Serratia marcesceus 2532; 24 H incubation at 37°C
  MIC: 10 µg/mL (≈ 27.1 µM)
Serratia marcesceus 2532; 48 H incubation at 37°C
  MIC: 10 µg/mL (≈ 27.1 µM)

## C[C@@H]1[C@H](NC(=O)/C(=N\OC(F)F)c2csc(N)n2)C(=O)N1c1nn[nH]n1 (racemic) [Prod. ex. 4]
[1]; 24 H incubation at 37°C
  MIC: 1.2 µg/mL (≈ 3.1 µM)
[1]; 48 H incubation at 37°C
  MIC: 1.2 µg/mL (≈ 3.1 µM)
Escherichia Coli 078; [6]
  MIC: 0.3 µg/mL (≈ 0.775 µM)
Escherichia Coli 078; [7]
  MIC: 0.3 µg/mL (≈ 0.775 µM)
Escherichia Coli 1507 E; 24 H incubation at 37°C
  MIC: 0.15 µg/mL (≈ 0.387 µM)
Escherichia Coli 1507 E; 48 H incubation at 37°C
  MIC: 0.15 µg/mL (≈ 0.387 µM)
Escherichia Coli 1894; [8]
  MIC: ≤ 0.04 µg/mL
Escherichia Coli 1894; [9]
  MIC: ≤ 0.04 µg/mL
Escherichia Coli DC0; [10]
  MIC: 1.2 µg/mL (≈ 3.1 µM)
Escherichia Coli DC0; [11]
  MIC: 1.2 µg/mL (≈ 3.1 µM)
Escherichia Coli DC2; [12]
  MIC: ≤ 0.04 µg/mL
Escherichia Coli DC2; [13]
  MIC: ≤ 0.04 µg/mL
Escherichia Coli TEM; 24 h
  MIC: 0.6 µg/mL (≈ 1.55 µM)
Escherichia Coli TEM; 48 h
  MIC: 1.2 µg/mL (≈ 3.1 µM)
[2]; 24 H incubation at 37°C
  MIC: 1.2 µg/mL (≈ 3.1 µM)
[2]; 48 H incubation at 37°C
  MIC: 1.2 µg/mL (≈ 3.1 µM)
[3]; 24 H incubation at 37°C
  MIC: 5 µg/mL (≈ 12.9 µM)
[3]; 48 H incubation at 37°C
  MIC: 5 µg/mL (≈ 12.9 µM)
Proteus mirabilis A 235; A235, 24 H incubation at 37°C
  MIC: 0.3 µg/mL (≈ 0.775 µM)
Proteus mirabilis A 235; A235, 48 H incubation at 37°C
  MIC: 0.3 µg/mL (≈ 0.775 µM)
Proteus vulgaris A 232; A232, 24 H incubation at 37°C
  MIC: 0.3 µg/mL (≈ 0.775 µM)
Proteus vulgaris A 232; A232, 48 H incubation at 37°C
  MIC: 0.3 µg/mL (≈ 0.775 µM)
Providencia DU 48; DU48, 24 H incubation at 37°C
  MIC: 2.5 µg/mL (≈ 6.45 µM)
Providencia DU 48; DU48, 48 H incubation at 37°C
  MIC: 2.5 µg/mL (≈ 6.45 µM)
[4]; 24 H incubation at 37°C
  MIC: 1.2 µg/mL (≈ 3.1 µM)
[4]; 48 H incubation at 37°C
  MIC: 1.2 µg/mL (≈ 3.1 µM)
Serratia marcesceus 2532; 24 H incubation at 37°C
  MIC: 20 µg/mL (≈ 51.6 µM)
Serratia marcesceus 2532; 48 H incubation at 37°C
  MIC: 20 µg/mL (≈ 51.6 µM)

## C[C@@H]1[C@H](NC(=O)/C(=N\OCC(=O)O)c2csc(N)n2)C(=O)N1c1nn[nH]n1 (racemic) [Prod. ex. 6, (3SR, 4RS) 3-//2-(2-aminothiazol-4-yl) 2/-(carboxyméthoxy) imino/acétyl/amino/ 4-méthyl 1-(1H-tétrazol-5-yl) 2-azétidinone isomère syn]
[1]; 24 H incubation at 37°C
  MIC: 0.3 µg/mL (≈ 0.759 µM)
[1]; 48 H incubation at 37°C
  MIC: 0.6 µg/mL (≈ 1.52 µM)
Escherichia Coli 078; [6]
  MIC: 0.3 µg/mL (≈ 0.759 µM)
Escherichia Coli 078; [7]
  MIC: 0.3 µg/mL (≈ 0.759 µM)
Escherichia Coli 1507 E; 24 H incubation at 37°C
  MIC: 0.6 µg/mL (≈ 1.52 µM)
Escherichia Coli 1507 E; 48 H incubation at 37°C
  MIC: 0.6 µg/mL (≈ 1.52 µM)
Escherichia Coli 1894; [8]
  MIC: 0.6 µg/mL (≈ 1.52 µM)
Escherichia Coli 1894; [9]
  MIC: 0.6 µg/mL (≈ 1.52 µM)
Escherichia Coli DC0; [10]
  MIC: 0.6 µg/mL (≈ 1.52 µM)
Escherichia Coli DC0; [11]
  MIC: 0.6 µg/mL (≈ 1.52 µM)
Escherichia Coli DC2; [12]
  MIC: 0.3 µg/mL (≈ 0.759 µM)
Escherichia Coli DC2; [13]
  MIC: 0.3 µg/mL (≈ 0.759 µM)
Escherichia Coli TEM; 24 h
  MIC: 0.6 µg/mL (≈ 1.52 µM)
Escherichia Coli TEM; 48 h
  MIC: 0.6 µg/mL (≈ 1.52 µM)
[2]; 24 H incubation at 37°C
  MIC: 0.6 µg/mL (≈ 1.52 µM)
[2]; 48 H incubation at 37°C
  MIC: 0.6 µg/mL (≈ 1.52 µM)
[3]; 24 H incubation at 37°C
  MIC: 2.5 µg/mL (≈ 6.32 µM)
[3]; 48 H incubation at 37°C
  MIC: 2.5 µg/mL (≈ 6.32 µM)
Proteus mirabilis A 235; A235, 24 H incubation at 37°C
  MIC: 0.15 µg/mL (≈ 0.379 µM)
Proteus mirabilis A 235; A235, 48 H incubation at 37°C
  MIC: 0.15 µg/mL (≈ 0.379 µM)
Proteus vulgaris A 232; A232, 24 H incubation at 37°C
  MIC: 0.08 µg/mL (≈ 0.202 µM)
Proteus vulgaris A 232; A232, 48 H incubation at 37°C
  MIC: 0.15 µg/mL (≈ 0.379 µM)
Providencia DU 48; DU48, 24 H incubation at 37°C
  MIC: 0.6 µg/mL (≈ 1.52 µM)
Providencia DU 48; DU48, 48 H incubation at 37°C
  MIC: 0.6 µg/mL (≈ 1.52 µM)
[5]; 24 H incubation at 37°C
  MIC: 2.5 µg/mL (≈ 6.32 µM)
[5]; 48 H incubation at 37°C
  MIC: 5 µg/mL (≈ 12.6 µM)
[4]; 24 H incubation at 37°C
  MIC: 0.6 µg/mL (≈ 1.52 µM)
[4]; 48 H incubation at 37°C
  MIC: 0.6 µg/mL (≈ 1.52 µM)
Serratia marcesceus 2532; 24 H incubation at 37°C
  MIC: 2.5 µg/mL (≈ 6.32 µM)
Serratia marcesceus 2532; 48 H incubation at 37°C
  MIC: 5 µg/mL (≈ 12.6 µM)

— patent publication EP0114128A1, “3-Amino-2-oxo-azetidine derivatives containing in position 1 a nitrogen heterocyclic radical, process for their preparation, their use as therapeutical agents and intermediates for their preparation” (priority 1983, dated 1984)
